Tests used:
[1] = Reaction kinetics of cycloaddition (SPAAC) with benzyl azide, followed by proton NMR; assay type: physicochemical
Source text: In a preferred embodiment, a compound of the Formula (IIa), (IIb) and/or (IIc), or a conjugate thereof as described above, is reacted with a compound comprising a 1,3-dipole or a 1,3-(hetero)diene. For example the cycloaddition of (IIa) with benzyl azide in aqueous conditions proceeds rapidly and cleanly to the corresponding triazole adducts with excellent reaction kinetics (k=0.09-0.28 M^−1 s^−1, depending on the solvent). […] Consequently, a mixture of the exo- and endo-compounds according to the invention may be applied in some applications, avoiding the need for separation of the exo- and endo-compounds and even further simplifying the synthesis of the compounds according to the invention.
The reaction kinetics for cycloaddition with the prototypical azide benzyl azide were investigated. Thus, compound endo-IIa.2 was dissolved in a 3:1 mixture of CD3CN and D2O and mixed with benzyl azide at a final concentration of 18 mM. […] A significant solvent effect was noticed because the same cycloaddition reaction in a 1:2 mixture of CD3CN and D2O gave rate constants of 0.28 and 0.25 M^−1 s^−1 for endo-IIa.2 and exo-IIa.2, respectively.

[2] = prior art cyclooctynes; cited from earlier work
[3] = 3:1 mixture of CD3CN and D2O, final concentration 18 mM

OC[C@H]1[C@H]2CCC#CCC[C@@H]12 [endo-IIa.2, endo-9-(hydroxymethyl)bicyclo[6.1.0]non-4-yne]
second-order rate constant of cycloaddition with benzyl azide ([1]; 1:2 mixture of CD3CN and D2O): 0.28 M⁻¹ s⁻¹ | second-order rate constant of cycloaddition with benzyl azide [1, 3]: 0.12 M⁻¹ s⁻¹

OC1Cc2ccccc2C#Cc2ccccc21 (stereo not drawn) [DIBO]
reaction rate constant k of cycloaddition with azide [2]: 0.12 M⁻¹ s⁻¹

O=C(O)CC1CCCCC#CC1(F)F (stereo not drawn) [DIFO3]
reaction rate constant k of cycloaddition with azide [2]: ≤ 0.076 M⁻¹ s⁻¹

OCC1C2CCC#CCCC12 (stereo not drawn) [exo-IIa.2, 9-(hydroxymethyl)bicyclo[6.1.0]non-4-yne]
second-order rate constant of cycloaddition with benzyl azide ([1]; 1:2 mixture of CD3CN and D2O): 0.25 M⁻¹ s⁻¹ | second-order rate constant of cycloaddition with benzyl azide [1, 3]: 0.10 M⁻¹ s⁻¹
